Assay results taken from patent publication US7820689B2, “Methods and compositions for preventing or treating cardiovascular disease” (priority 2006, dated 2010).

Key:
[1] = tested on: superoxide in the thoracic aorta; experiment: Superoxide production in thoracic aorta of apoE-deficient mice, lucigenin chemiluminescence; type: in vivo; conditions: 10 weeks, controls 534,000±145,000
Experimental: ApoE-deficient mice were treated daily with DM 5 mg/kg/day (n=9), 10 mg/kg/day (n=9), 20 mg/kg/day (n=9) or 40 mg/kg/day (n=11) for 10 weeks. Production of superoxide in PMN (1×10^6 cells/mL PBS) (A) was measured by lucigenin-enhanced chemiluminescence. The results are expressed as mean±SD. (P<0.05, control versus 10 mg/kg/day; P<0.001, control versus 20 mg/kg/day and 40 mg/kg/day). Production of superoxide in the thoracic aorta (B) was also measured by lucigenin-enhanced chemiluminescence. The results are expressed as mean±SD. (P<0.05, control versus 10 mg/kg/day and 40 mg/kg/day; P<0.01, control versus 20 mg/kg/day).
Having established the DM inhibitory effect on macrophage activation and NADPH oxidase, we next examined the functional consequences of which in vivo. […] Sections of left carotid arteries from the mice were stained with DHE and then imaged with a laser scanning confocal microscope.

macrophage NADPH oxidase = experiment: Macrophage NADPH oxidase activity after LPS, lucigenin chemiluminescence; type: cell-based, human; conditions: LPS alone 3,310,000±1,670,000
Experimental: THP-1 cell culture was pretreated for 1 hour with the indicated concentrations of DM before stimulation with 100 ng/mL LPS. Lysis buffer was added to the cells and centrifuged. The supernatant was discarded and the pellet was resuspended. NADPH oxidase activity was measured by mixing 30 μg protein, 5 μM lucigenin, and 100 μM NADPH. Chemiluminescence was determined every 10 seconds for 15 minutes. Data are presented as mean±SD (n=8-15). ***P<0.001 compared with the LPS-treated cells.

[2] = tested on: MCP-1 release from THP-1 cells after LPS stimulation; experiment: LPS-induced MCP-1 release in THP-1 macrophage culture (ELISA); type: cell-based, human; conditions: 1 μM pretreatment, LPS alone 9.22±1.17
Experimental: (§1) THP-1 cells were grown in the RPMI-1640 medium containing 10% fetal bovine serum at 37° C. in 5% CO2. The cells were differentiated to macrophages after treatment of the culture with 100 nM PMA for 24 hours. The cell suspension (5×10^5) was added in 0.5 mL into each well of the tissue culture plates. […] LPS was dissolved in sterile water and stored at −70° C. in aliquots. LDL was isolated from human endotoxin-free heparin plasma and was oxidized using CuSO4. In brief, LDL (1 mL, 1 mg/mL) was dialyzed in 500 mL phosphate-buffered saline (PBS, pH 7.4) overnight. Copper sulfate was added to a final concentration of 5 μM, and the LDL was allowed to oxidize at room temperature for 24 hours.
(§2) The supernatants were harvested and the TNF-α, IL-6, and MCP-1 levels were determined by ELISA. Superoxide production in the THP-1 cell culture was measured by lucigenin-enhanced chemiluminescence as described previously (Khadour F H, Panas D, Ferdinandy P, et al. Am J Physiol Heart Circ Physiol, 28:H1108-15 2002). LPS-treated THP-1 cells were treated with PBS containing 1.25 mM lucigenin, and counts were obtained for a 10-minute period in a luminometer (Berthold Technologies, Germany) as relative light units (RLU) emitted. Background counts determined in cell-free preparations were subtracted. […]

[3] = tested on: CD45-positive cells in lungs; experiment: Pulmonary inflammatory cell (CD45-positive) infiltration in LPS-treated mice, immunofluorescence; type: in vivo; conditions: LPS only 103±16
Experimental: (§3) All mice then received 20 mg/kg LPS by intraperitoneal injection. Blood samples were obtained at 6 hours after LPS injection from a catheter placed in the left carotid artery. Blood samples were centrifuged, and the plasma TNF-α levels were measured by ELISA. Lungs were harvested from the animals 6 hours after LPS injection in each group as described above. The tissues were fixed in 4% paraformaldehyde and embedded in paraffin for histopathological examination. The presence of inflammatory cells in lungs was determined by immunofluorescence. The sections were incubated with rat monoclonal antibody against mouse CD45, a leukocyte common antigen (1:50 dilution, Pharmingen). After washing, fluorescein isothiocyanate-conjugated sheep […] immunoglobulin (Amersham Pharmacia Biotech) was applied as a secondary antibody. […] The total CD45-positive cell number was counted in five randomly selected sections under high power field magnification (400×) for each mouse. Oxidative fluorescent microtopography with the oxidative fluorescent dye dihydroethidium (DHE) was used to evaluate the in situ production of superoxide in aorta. Aortas were harvested from the animals at 6 hours after LPS injection in each group as described above. Unfixed frozen ring segments were cut into 30-μm-thick sections and placed on a glass slide. DHE (10 μM) was topically applied to each tissue section and a cover slip was applied. Slides were incubated in a light-protected humidified chamber at 37° C. for 30 minutes. Fluorescence was detected with a laser scanning confocal microscope (Leica Microsystems, Germany) with excitation at 488-nm and detection at 585-nm using a long-pass filter.

plasma TNF-α = experiment: Plasma TNF-α in LPS-treated FVB mice (ELISA); type: in vivo; conditions: 6 h, LPS only 576.1±43.6
Experimental: as §3

[4] = tested on: superoxide production in aorta; experiment: Superoxide in aorta of LPS-treated mice, DHE oxidative fluorescent microtopography; type: in vivo
Experimental: as §3, with “Aortas were harvested from the animals at 6 hours after LPS injection in each group as described above. Unfixed frozen ring segments were cut into 30-μm-thick sections and placed on a glass slide. DHE (10 μM) was topically applied to each tissue section and a cover slip was applied. Slides were incubated in a light-protected humidified chamber at 37° C. for 30 minutes.” left out

[5] = tested on: MCP-1 release from THP-1 cells after oxLDL stimulation; experiment: oxLDL-induced MCP-1 release in THP-1 macrophage culture (ELISA); type: cell-based, human; conditions: 0.01 μM pretreatment, oxLDL alone 2.23±0.34
Experimental: as §1, §2

Row | SMILES | superoxide in the thoracic aorta ([1]; 5 mg/kg, P=NS) | superoxide in the thoracic aorta ([1]; 10 mg/kg) | superoxide in the thoracic aorta ([1]; 20 mg/kg) | superoxide in the thoracic aorta ([1]; 40 mg/kg) | NADPH oxidase activity (macrophage NADPH oxidase; DM 0.01 μM pretreatment) | NADPH oxidase activity (macrophage NADPH oxidase; DM 0.1 μM pretreatment) | NADPH oxidase activity (macrophage NADPH oxidase; DM 1 μM pretreatment) | MCP-1 in medium [2] | infiltration of inflammatory cells in the lungs (CD45-positive cell number) ([3]; 10 mg/kg i.p. before LPS) | infiltration of inflammatory cells in the lungs (CD45-positive cell number) ([3]; 20 mg/kg i.p. before LPS) | infiltration of inflammatory cells in the lungs (CD45-positive cell number) ([3]; 25 mg/kg i.p. before LPS) | plasma TNF-α level (plasma TNF-α; 10 mg/kg i.p. before 20 mg/kg LPS) | plasma TNF-α level (plasma TNF-α; 20 mg/kg i.p. before 20 mg/kg LPS) | plasma TNF-α level (plasma TNF-α; 25 mg/kg i.p. before 20 mg/kg LPS) | DHE staining of aorta (superoxide), FIG. 5 ([4]; 20 mg/kg naloxone pretreatment 1 hour before LPS) | DHE fluorescence intensity in aortic sections (superoxide) ([4]; 10, 20, and 25 mg/kg pretreatment, LPS-treated mice) | MCP-1 in medium [5]
1 | COc1ccc2c(c1)[C@]13CCCC[C@@H]1[C@H](C2)N(C)CC3 [DM, (+)-3-methoxy-17-methyl-9α,13α,14α-morphinan] | 424,000±141,000 RLU/15 min | 377,000±97,000 RLU/15 min | 341,000±94,000 RLU/15 min | 379,000±84,000 RLU/15 min | 1,360,000±860,000 RLU/15 min/mL | 1,280,000±540,000 RLU/15 min/mL | 1,400,000±730,000 RLU/15 min/mL | – | – | – | – | – | – | – | – | – | –
2 | C=CCN1CC[C@]23c4c5ccc(O)c4O[C@H]2C(=O)CC[C@@]3(O)[C@H]1C5 [Naloxone, 17-allyl-4,5α-epoxy-3,14-dihydroxymorphinan-6-one] | – | – | – | – | – | – | – | 6.16 ± 0.16 ng/mL | 74±10 | 58±15 | 62±12 | 452.9 ± 55.0 pg/mL | 251.9 ± 59.6 pg/mL | 288.0 ± 33.9 pg/mL | staining was much more reduced | significantly reduced the increase of fluorescence intensity | 0.95 ± 0.28 ng/mL
